TGI data for 14 compounds are collected here from PubChem BioAssay (NCI).

Common to all, as to assay: NCI tumour cell line growth inhibition, 48 h
Experiment [1] relates to MDA-N.
Experiment [2] has as its system SK-MEL-2 melanoma.
The subject of experiment [3] is NCI-H460 lung.
The subject of experiment [4] is HT29 colon.
Experiment [5] deals with HOP-92 NSCLC.
The test system of experiment [6] is MDA-MB-231 breast.
Experiment [7] has as its system SW-620 colon.
The subject of experiment [8] is SNB-75 CNS.
In experiment [9] the test system is HS 578T breast.
Experiment [10] deals with HL-60(TB) leukemia.
The subject of experiment [11] is RPMI-8226 leukemia.
Experiment [12] relates to COLO 205 colon.
For experiment [13], the system named is PC-3 prostate.
In experiment [14] the test system is NCI-H522 lung.
For experiment [15], the system named is UO-31 renal.
The test system of experiment [16] is SK-OV-3 ovarian.
The test system of experiment [17] is HCT-15 colon.
Experiment [18] has as its system MOLT-4 leukemia.
The subject of experiment [19] is LOX IMVI melanoma.
For experiment [20], the system named is NCI/ADR-RES ovarian.

SMILES strings stand for the structures.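 Protocol summary: plate cells (96-well), add compound at 5 concentrations, incubate 48 h, interpolate endpoints linearly. TGI: total growth inhibition.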

Turning to `CCOC(=O)C1=C(OS(=O)(=O)C(F)(F)F)CCCC1`, the TGI in experiment [1], in experiment [2], in [3], in experiment [4], in [5] and in experiment [6] was over 100 µM each time. For the same compound, the TGI in [7], in [8], in experiment [9], in [10], in [11] and in experiment [12] was over 100 µM throughout. The TGI in experiment [13], in [14], in [15], in experiment [16], in [17] and in experiment [18] was over 100 µM in each case. Also, the TGI in [19] and in [20] was over 100 µM each time.
Regarding `C=CC1(c2ccc3ccccc3c2)OCC(CC)(CC)CO1`, the TGI in [1] worked out at 65.8 µM; in [2], 34.7 µM; in experiment [3], 46.8 µM; in experiment [4], 57.5 µM; in experiment [5] it was 52 µM; in experiment [6] it was 33.9 µM. Also, the TGI in experiment [7] came out at 43.4 µM; in experiment [8], 96.1 µM; in experiment [9], 41.6 µM; in [10], 41.4 µM; in experiment [11] it was 80.4 µM; in experiment [12], 31.8 µM. In addition, the TGI is 65.5 µM in experiment [13]; 50.9 µM in [14]; 86.1 µM in experiment [15]; over 100 µM in [16]; 35.1 µM in [17]; 38.8 µM in experiment [18]. Further, the results for the TGI in [19] and in [20] were 34.5 µM and 66.4 µM, respectively.
`COc1cc(C2SCC(=O)N2c2ccc(-c3ccc(-n4c(-c5ccccc5)nc5ccccc5c4=O)cc3)cc2)ccc1O` (stereo not given): the TGI in [1] was over 100 µM; in experiment [2], over 100 µM; in experiment [3], over 100 µM; in [4], over 100 µM; in experiment [5] it was 74.1 µM; in experiment [6], over 100 µM. The TGI is over 100 µM in experiment [7]; 49.8 µM in experiment [8]; over 100 µM in [9]; over 100 µM in [10]; over 100 µM in experiment [11]; over 100 µM in experiment [12]. Besides, the TGI in experiment [13], in experiment [14], in [15], in experiment [16], in [17] and in [18] was over 100 µM throughout. For the same compound, the TGI in [19] and in experiment [20] was over 100 µM each time.
On to `C[C@@H](C(=O)O)c1ccc(-c2ccccc2)c(F)c1`, for which the TGI in experiment [1], in [2], in experiment [3], in [4], in [5] and in [6] was over 100 µM each time. The TGI in [7], in experiment [8], in [9], in experiment [10], in [11] and in experiment [12] was over 100 µM in each case. For the same compound, the TGI in experiment [13], in [14], in experiment [15], in [16], in [17] and in experiment [18] was over 100 µM throughout. In addition, the TGI in experiment [19] and in [20] was over 100 µM in each case.
With `O=C(CC(=O)N(C(=O)c1ccccc1)c1ccc(Cl)cc1)N/N=C\c1ccccc1O`, the TGI is over 100 µM in [1]; over 100 µM in experiment [2]; over 100 µM in experiment [3]; over 100 µM in experiment [4]; 75 µM in experiment [5]; over 100 µM in experiment [6]. Besides, the TGI in experiment [7] is over 100 µM; in [8], 67.4 µM; in experiment [9] it was 81.3 µM; in experiment [10], over 100 µM; in experiment [11], over 100 µM; in [12] it was over 100 µM. Also, the TGI in experiment [13] is over 100 µM; in experiment [14] it was over 100 µM; in experiment [15] it was over 100 µM; in [16], 54.3 µM; in experiment [17], over 100 µM; in experiment [18], over 100 µM. The TGI in [19] and in [20] was over 100 µM in each case.
As for `COc1ccc(-c2nc(N)c(C#N)c3c2CCSc2ccc(C)cc2-3)cc1OC`, the TGI is over 45.5 µM in experiment [1]; over 75.6 µM in experiment [2]; over 61.5 µM in experiment [3]; over 53.1 µM in experiment [4]; 55 µM in [5]; 35.8 µM in experiment [6]. For the same compound, the TGI in [7] was over 100 µM; in experiment [8], 71.3 µM; in experiment [9] it was 52.9 µM; in [10] it was 17.7 µM; in [11] it was 7.09 µM; in [12], 26.6 µM. Moreover, the TGI in experiment [13] is over 100 µM; in [14], over 100 µM; in experiment [15], 27.2 µM; in experiment [16], over 95.1 µM; in experiment [17] it was over 73.1 µM; in experiment [18], 25.1 µM. The results for the TGI in [19] and in experiment [20] were over 50.2 µM and over 58 µM, respectively.
Consider `OCCOCCN1CCN(c2nc(N3CCCC3)c3nc(Cl)c(NCc4ccccc4)nc3n2)CC1`, for which the TGI in experiment [1] was determined as 22.7 µM; in experiment [2] it was 32 µM; in [3], 24.7 µM; in [4], 13.7 µM; in experiment [5], 26.2 µM; in experiment [6], 32.7 µM. Moreover, the TGI in [7] was determined as 44.6 µM; in experiment [8] it was 36.5 µM; in experiment [9], 43.5 µM; in experiment [10], 29 µM; in experiment [11], 27.9 µM; in [12] it was 21.7 µM. Besides, the TGI amounted to 27.1 µM in [13]; 31.5 µM in [14]; 21.7 µM in experiment [15]; 31.9 µM in experiment [16]; 15.3 µM in experiment [17]; 27.8 µM in experiment [18]. For the same compound, the TGI in experiment [19] was determined as 23 µM; in experiment [20] it was 31.1 µM.
For `Nc1ccn([C@H]2CO[C@@H](CO)O2)c(=O)n1`, the TGI in experiment [1] is over 100 µM; in [2], over 100 µM; in experiment [3], over 100 µM; in [4] it was over 100 µM; in [5], 43.8 µM; in [6] it was over 100 µM. The TGI in experiment [7] was over 100 µM; in experiment [8], over 100 µM; in experiment [9], over 100 µM; in experiment [10], over 67.2 µM; in experiment [11] it was over 100 µM; in experiment [12], over 100 µM. The TGI is over 100 µM in [13]; over 100 µM in [14]; over 75.1 µM in experiment [15]; over 100 µM in experiment [16]; over 100 µM in experiment [17]; 49.5 µM in experiment [18]. Moreover, the TGI in experiment [19] and in experiment [20] was over 100 µM each time.
Turning to `C[C@@H]1CCC2[C@@H](C)[C@H](O[C@H]3O[C@@H]4O[C@@]5(C)CCC6[C@H](C)CCC([C@H]3C)[C@]64OO5)O[C@@H]3O[C@@]4(C)CCC1[C@@]23OO4` (stereo not given in full), the TGI in experiment [1] was determined as 19.2 µM; in [2], 9.69 µM; in [3] it was 17 µM; in [4] it was 13.4 µM; in experiment [5], 11.4 µM; in experiment [6] it was 13.1 µM. In addition, the TGI in experiment [7] came out at 16.5 µM; in [8], 14.5 µM; in [9] it was 24.2 µM; in experiment [10] it was 3.81 µM; in experiment [11], 1.46 µM; in experiment [12], 0.326 µM. For the same compound, the TGI came out at 12.5 µM in experiment [13]; 12.9 µM in experiment [14]; 11 µM in experiment [15]; 41.7 µM in experiment [16]; 12.4 µM in [17]; 15 µM in [18]. Also, the TGI came out at 1.58 µM in experiment [19] and 15.5 µM in experiment [20].
`NCCCCC(N)C(=O)N1CCN(c2nc(N3CCCC3)c3nc(Cl)c(NCc4ccccc4)nc3n2)CC1` (stereo not given): the TGI in [1] was determined as 33.7 µM; in experiment [2], 35.9 µM; in experiment [3], 34.4 µM; in experiment [4], 38 µM; in [5], 25.8 µM; in [6], 34.3 µM. For the same compound, the TGI in experiment [7] was 47.7 µM; in experiment [8], 32.9 µM; in experiment [9], 47.4 µM; in experiment [10], 36.1 µM; in [11], 44.4 µM; in experiment [12], 33.1 µM. Moreover, the TGI in experiment [13] worked out at 32.1 µM; in experiment [14], 42.1 µM; in [15], 32.9 µM; in [16], 37.4 µM; in [17], 35.2 µM; in experiment [18] it was 50.6 µM. Further, the results for the TGI in [19] and in [20] were 35.9 µM and over 100 µM, respectively.
For `OC(c1ccsc1)c1cc2ccccc2s1` (stereo not given), the TGI in experiment [1], in experiment [2], in experiment [3], in experiment [4], in experiment [5] and in experiment [6] was over 10 µM throughout. For the same compound, the TGI in experiment [7], in experiment [8], in [9], in experiment [10], in experiment [11] and in [12] was over 10 µM each time. For the same compound, the TGI in experiment [13], in [14], in experiment [15], in [16], in [17] and in experiment [18] was over 10 µM each time. In addition, the TGI in experiment [19] and in [20] was over 10 µM each time.
On to `COc1c(C(=O)/C(=N/Nc2ccccc2)C(C)=O)c(O)c(OC)c2occc12`, for which the TGI in experiment [1] was over 100 µM; in experiment [2], over 100 µM; in experiment [3] it was over 100 µM; in experiment [4], over 100 µM; in experiment [5], 99.6 µM; in [6], over 100 µM. The TGI in experiment [7] is over 100 µM; in experiment [8] it was 81.8 µM; in experiment [9] it was over 100 µM; in experiment [10], over 100 µM; in experiment [11] it was over 100 µM; in experiment [12], over 100 µM. Also, the TGI in experiment [13] is over 100 µM; in experiment [14] it was over 100 µM; in experiment [15] it was 86.3 µM; in experiment [16] it was over 100 µM; in experiment [17], over 100 µM; in [18], over 100 µM. Also, the TGI in [19] and in experiment [20] was over 100 µM in each case.
For the compound `CC(Oc1ccccc1)C(=O)NN` (stereo not given), the TGI in [1], in experiment [2], in [3], in experiment [4], in experiment [5] and in experiment [6] was over 100 µM throughout. Also, the TGI in [7], in experiment [8], in experiment [9], in [10], in experiment [11] and in experiment [12] was over 100 µM each time. Moreover, the TGI in experiment [13], in experiment [14], in [15], in experiment [16], in experiment [17] and in [18] was over 100 µM each time. For the same compound, the TGI in [19] and in [20] was over 100 µM in each case.
In the case of `CC(=O)Nc1ccc2c3c(cc(O)c2c1)N(C(=O)CCCC(=O)Nc1ccc2c4c(cc(O)c2c1)N(C(=O)OC(C)(C)C)CC4CCl)CC3CCl` (stereo not given), the TGI was 3.34 µM in experiment [1]; 1.84 µM in experiment [2]; 21.5 µM in experiment [3]; over 13.1 µM in [4]; over 15.1 µM in [5]; 3.74 µM in experiment [6]. The TGI in experiment [7] was over 50 µM; in experiment [8], 12.6 µM; in experiment [9] it was over 12.1 µM; in experiment [10] it was 1.71 µM; in experiment [11], over 34.8 µM; in experiment [12], 6.05 µM. Also, the TGI was over 15.6 µM in experiment [13]; 3.85 µM in experiment [14]; over 50 µM in [15]; over 15.6 µM in [16]; over 50 µM in [17]; 0.912 µM in experiment [18]. The values for the TGI in experiment [19] and in [20] were over 12.4 µM and over 50 µM, respectively.
